Results as given in patent publication US8143290B2, “Chemical compounds 572” (AstraZeneca AB, priority 2006, dated 2012).

Target: T1, recombinant human GR (Homo sapiens, UniProt P04150)
T1 construct: purchased Panvera/Invitrogen P2812 (kit P2893)
T1 sequence (P04150 1-777): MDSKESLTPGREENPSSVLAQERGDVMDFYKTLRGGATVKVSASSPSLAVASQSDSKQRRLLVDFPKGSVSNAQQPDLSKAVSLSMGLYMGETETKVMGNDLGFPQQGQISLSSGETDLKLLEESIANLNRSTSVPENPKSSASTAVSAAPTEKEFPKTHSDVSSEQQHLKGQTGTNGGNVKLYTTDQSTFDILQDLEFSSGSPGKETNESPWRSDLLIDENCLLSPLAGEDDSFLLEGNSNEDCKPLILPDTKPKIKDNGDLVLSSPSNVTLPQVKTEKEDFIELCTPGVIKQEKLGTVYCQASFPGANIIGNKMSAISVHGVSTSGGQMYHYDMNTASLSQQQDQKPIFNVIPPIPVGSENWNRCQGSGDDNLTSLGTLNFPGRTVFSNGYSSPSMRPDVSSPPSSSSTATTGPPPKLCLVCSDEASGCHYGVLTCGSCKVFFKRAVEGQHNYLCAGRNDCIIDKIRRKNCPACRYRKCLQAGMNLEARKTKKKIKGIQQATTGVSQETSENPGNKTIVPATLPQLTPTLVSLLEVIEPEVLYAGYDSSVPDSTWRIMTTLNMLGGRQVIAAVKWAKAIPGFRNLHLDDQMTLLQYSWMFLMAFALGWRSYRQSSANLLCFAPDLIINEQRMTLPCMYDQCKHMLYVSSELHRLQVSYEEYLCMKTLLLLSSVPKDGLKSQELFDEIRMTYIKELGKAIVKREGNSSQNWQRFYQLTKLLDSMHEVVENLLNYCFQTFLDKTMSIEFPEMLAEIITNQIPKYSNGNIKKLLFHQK
Assay: Human Glucocorticoid Receptor (GR) Assay, fluorescence polarization
Format: binding
Conditions: GS Red tracer, incubated 2 h at r.t., XLfit model 205, read-out: GRhuFL_FP_v2 Mean IC50
How it was run: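 Fluorescence polarization kit assay: recombinant GR and GS Red fluorescent ligand with Stabilizing Peptide and DTT in potassium phosphate/sodium molybdate/EDTA screening buffer. Plates incubated 2 h in the dark at r.t.; DMSO served as 0% and dexamethasone as 100% control.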

Structure (SMILES)	IC50 [nM]
C[C@H](NC(=O)C(C)(C)C)[C@H](Oc1ccc2c(cnn2-c2ccc(F)cc2)c1)c1ccc(Cl)cc1 [Example 183, N-[(1R,2S)-1-(4-chlorophenyl)-1-[1-(4-fluorophenyl)indazol-5-yl]oxy-propan-2-yl]-2,2-dimethyl-propanamide]	4.6
C[C@H](NC(=O)C(C)(C)C)[C@H](Oc1ccc2c(cnn2-c2ccc(F)cc2)c1)c1cc(F)cc(Cl)c1 [Example 184, N-[(1R,2S)-1-(3-chloro-5-fluoro-phenyl)-1-[1-(4-fluorophenyl)indazol-5-yl]oxy-propan-2-yl]-2,2-dimethyl-propanamide]	5.1
Cc1cccc([C@@H](Oc2ccc3c(cnn3-c3ccc(F)cc3)c2)[C@H](C)NC(=O)C(C)(C)C)c1 [Example 185, N-[(1R,2S)-1-[1-(4-fluorophenyl)indazol-5-yl]oxy-1-(3-methylphenyl)propan-2-yl]-2,2-dimethyl-propanamide]	5.5
C[C@H](NC(=O)C(C)(C)C)[C@H](Oc1ccc2c(cnn2-c2ccc(F)cc2)c1)c1ccc(C(C)(C)C)cc1 [Example 186, N-[(1R,2S)-1-[1-(4-fluorophenyl)indazol-5-yl]oxy-1-(4-tert-butylphenyl)propan-2-yl]-2,2-dimethyl-propanamide]	6.6
COc1ccccc1[C@@H](Oc1ccc2c(cnn2-c2ccc(F)cc2)c1)[C@H](C)NC(=O)C(C)(C)C [Example 187, N-[(1R,2S)-1-[1-(4-fluorophenyl)indazol-5-yl]oxy-1-(2-methoxyphenyl)propan-2-yl]-2,2-dimethyl-propanamide]	4.5
CCCc1ccc([C@@H](Oc2ccc3c(cnn3-c3ccc(F)cc3)c2)[C@H](C)NC(=O)C(C)(C)C)cc1 [Example 188, N-[(1R,2S)-1-[1-(4-fluorophenyl)indazol-5-yl]oxy-1-(4-propylphenyl)propan-2-yl]-2,2-dimethyl-propanamide]	7.3
C[C@H](NC(=O)C(C)(C)C)[C@H](Oc1ccc2c(cnn2-c2ccc(F)cc2)c1)c1ccc2c(c1)OCO2 [Example 189, N-[(1R,2S)-1-benzo[1,3]dioxol-5-yl-1-[1-(4-fluorophenyl)indazol-5-yl]oxy-propan-2-yl]-2,2-dimethyl-propanamide]	7.8
Cc1c(F)cccc1[C@@H](Oc1ccc2c(cnn2-c2ccc(F)cc2)c1)[C@H](C)NC(=O)C(C)(C)C [Example 190, N-[(1R,2S)-1-(3-fluoro-2-methyl-phenyl)-1-[1-(4-fluorophenyl)indazol-5-yl]oxy-propan-2-yl]-2,2-dimethyl-propanamide]	4.5
Cc1cc([C@@H](Oc2ccc3c(cnn3-c3ccc(F)cc3)c2)[C@H](C)NC(=O)C(C)(C)C)ccc1Cl [Example 191, N-[(1R,2S)-1-(4-chloro-3-methyl-phenyl)-1-[1-(4-fluorophenyl)indazol-5-yl]oxy-propan-2-yl]-2,2-dimethyl-propanamide]	5.9
Cc1cnc(C(=O)N[C@@H](C)[C@H](Oc2ccc3c(cnn3-c3ccc(F)cc3)c2)c2ccc(C)c(C)c2)s1 [Example 192, N-[(1R,2S)-1-(3,4-dimethylphenyl)-1-[1-(4-fluorophenyl)indazol-5-yl]oxy-propan-2-yl]-5-methyl-1,3-thiazole-2-carboxamide]	4.3
Cc1cnc(C(=O)N[C@@H](C)[C@H](Oc2ccc3c(cnn3-c3ccc(F)cc3)c2)c2ccc(F)c(F)c2)s1 [Example 193, N-[(1R,2S)-1-(3,4-difluorophenyl)-1-[1-(4-fluorophenyl)indazol-5-yl]oxy-propan-2-yl]-5-methyl-1,3-thiazole-2-carboxamide]	6.5
Cc1cnc(C(=O)N[C@@H](C)[C@H](Oc2ccc3c(cnn3-c3ccc(F)cc3)c2)c2ccc(C)c(F)c2)s1 [Example 194, N-[(1R,2S)-1-(3-fluoro-4-methyl-phenyl)-1-[1-(4-fluorophenyl)indazol-5-yl]oxy-propan-2-yl]-5-methyl-1,3-thiazole-2-carboxamide]	3.9
Cc1cnc(C(=O)N[C@@H](C)[C@H](Oc2ccc3c(cnn3-c3ccc(F)cc3)c2)c2cccc(F)c2)s1 [Example 195, N-[(1R,2S)-1-(3-fluorophenyl)-1-[1-(4-fluorophenyl)indazol-5-yl]oxy-propan-2-yl]-5-methyl-1,3-thiazole-2-carboxamide]	3.3
Cc1ccc(C)c([C@@H](Oc2ccc3c(cnn3-c3ccc(F)cc3)c2)[C@H](C)NC(=O)c2ncc(C)s2)c1 [Example 196, N-[(1R,2S)-1-(2,5-dimethylphenyl)-1-[1-(4-fluorophenyl)indazol-5-yl]oxy-propan-2-yl]-5-methyl-1,3-thiazole-2-carboxamide]	6.2
Cc1ccc([C@@H](Oc2ccc3c(cnn3-c3ccc(F)cc3)c2)[C@H](C)NC(=O)c2ncc(C)s2)c(C)c1 [Example 197, N-[(1R,2S)-1-(2,4-dimethylphenyl)-1-[1-(4-fluorophenyl)indazol-5-yl]oxy-propan-2-yl]-5-methyl-1,3-thiazole-2-carboxamide]	4.9
COc1ccc([C@@H](Oc2ccc3c(cnn3-c3ccc(F)cc3)c2)[C@H](C)NC(=O)c2ncc(C)s2)cc1F [Example 198, N-[(1R,2S)-1-(3-fluoro-4-methoxy-phenyl)-1-[1-(4-fluorophenyl)indazol-5-yl]oxy-propan-2-yl]-5-methyl-1,3-thiazole-2-carboxamide]	3.8
Cc1cnc(C(=O)N[C@@H](C)[C@H](Oc2ccc3c(cnn3-c3ccc(F)cc3)c2)c2cccc(Cl)c2)s1 [Example 199, N-[(1R,2S)-1-(3-chlorophenyl)-1-[1-(4-fluorophenyl)indazol-5-yl]oxy-propan-2-yl]-5-methyl-1,3-thiazole-2-carboxamide]	7.4
Cc1cnc(C(=O)N[C@@H](C)[C@H](Oc2ccc3c(cnn3-c3ccc(F)cc3)c2)c2ccc(F)cc2C)s1 [Example 200, N-[(1R,2S)-1-(4-fluoro-2-methyl-phenyl)-1-[1-(4-fluorophenyl)indazol-5-yl]oxy-propan-2-yl]-5-methyl-1,3-thiazole-2-carboxamide]	4.6
Cc1cnc(C(=O)N[C@@H](C)[C@H](Oc2ccc3c(cnn3-c3ccc(F)cc3)c2)c2cc(F)ccc2C)s1 [Example 201, N-[(1R,2S)-1-(5-fluoro-2-methyl-phenyl)-1-[1-(4-fluorophenyl)indazol-5-yl]oxy-propan-2-yl]-5-methyl-1,3-thiazole-2-carboxamide]	5.9
COc1ccc(F)cc1[C@@H](Oc1ccc2c(cnn2-c2ccc(F)cc2)c1)[C@H](C)NC(=O)c1ncc(C)s1 [Example 202, N-[(1R,2S)-1-(5-fluoro-2-methoxy-phenyl)-1-[1-(4-fluorophenyl)indazol-5-yl]oxy-propan-2-yl]-5-methyl-1,3-thiazole-2-carboxamide]	5.3
COc1c(C)cc([C@@H](Oc2ccc3c(cnn3-c3ccc(F)cc3)c2)[C@H](C)NC(=O)c2ncc(C)s2)cc1C [Example 203, N-[(1R,2S)-1-[1-(4-fluorophenyl)indazol-5-yl]oxy-1-(4-methoxy-3,5-dimethyl-phenyl)propan-2-yl]-5-methyl-1,3-thiazole-2-carboxamide]	5.4
Cc1cnc(C(=O)N[C@@H](C)[C@H](Oc2ccc3c(cnn3-c3ccc(F)cc3)c2)c2ccc(Cl)cc2)s1 [Example 204, N-[(1R,2S)-1-(4-chlorophenyl)-1-[1-(4-fluorophenyl)indazol-5-yl]oxy-propan-2-yl]-5-methyl-1,3-thiazole-2-carboxamide]	6.7
Cc1cnc(C(=O)N[C@@H](C)[C@H](Oc2ccc3c(cnn3-c3ccc(F)cc3)c2)c2cc(F)cc(Cl)c2)s1 [Example 205, N-[(1R,2S)-1-(3-chloro-5-fluoro-phenyl)-1-[1-(4-fluorophenyl)indazol-5-yl]oxy-propan-2-yl]-5-methyl-1,3-thiazole-2-carboxamide]	6.6
Cc1cnc(C(=O)N[C@@H](C)[C@H](Oc2ccc3c(cnn3-c3ccc(F)cc3)c2)c2cc(C)c(C)cc2C)s1 [Example 206, N-[(1R,2S)-1-[1-(4-fluorophenyl)indazol-5-yl]oxy-1-(2,4,5-trimethylphenyl)propan-2-yl]-5-methyl-1,3-thiazole-2-carboxamide]	7.5
Cc1cccc([C@@H](Oc2ccc3c(cnn3-c3ccc(F)cc3)c2)[C@H](C)NC(=O)c2ncc(C)s2)c1 [Example 207, N-[(1R,2S)-1-[1-(4-fluorophenyl)indazol-5-yl]oxy-1-(3-methylphenyl)propan-2-yl]-5-methyl-1,3-thiazole-2-carboxamide]	8.8
Cc1cnc(C(=O)N[C@@H](C)[C@H](Oc2ccc3c(cnn3-c3ccc(F)cc3)c2)c2ccc(C(C)(C)C)cc2)s1 [Example 208, N-[(1R,2S)-1-[1-(4-fluorophenyl)indazol-5-yl]oxy-1-(4-tert-butylphenyl)propan-2-yl]-5-methyl-1,3-thiazole-2-carboxamide]	8.2
